This is an account of results in patent US9901617B2, “Cell permeable inhibitors of the scaffold protein plenty of SH3 domains (POSH) or Sh3Rfl” (The Curators of the University of Missouri, priority 2013, dated 2018).

One data set deals with POSH/JIP-1 complex (Mus musculus, UniProt Q9WVI9).
The subject of a further data set is CD8+ T cells. To be noted: data not shown.
In a further data set the test system is T cells. To be noted: across a large range of concentrations.

No end group written: not given here.

POSH/JIP-1 complex, sequence (Q9WVI9 whole entry): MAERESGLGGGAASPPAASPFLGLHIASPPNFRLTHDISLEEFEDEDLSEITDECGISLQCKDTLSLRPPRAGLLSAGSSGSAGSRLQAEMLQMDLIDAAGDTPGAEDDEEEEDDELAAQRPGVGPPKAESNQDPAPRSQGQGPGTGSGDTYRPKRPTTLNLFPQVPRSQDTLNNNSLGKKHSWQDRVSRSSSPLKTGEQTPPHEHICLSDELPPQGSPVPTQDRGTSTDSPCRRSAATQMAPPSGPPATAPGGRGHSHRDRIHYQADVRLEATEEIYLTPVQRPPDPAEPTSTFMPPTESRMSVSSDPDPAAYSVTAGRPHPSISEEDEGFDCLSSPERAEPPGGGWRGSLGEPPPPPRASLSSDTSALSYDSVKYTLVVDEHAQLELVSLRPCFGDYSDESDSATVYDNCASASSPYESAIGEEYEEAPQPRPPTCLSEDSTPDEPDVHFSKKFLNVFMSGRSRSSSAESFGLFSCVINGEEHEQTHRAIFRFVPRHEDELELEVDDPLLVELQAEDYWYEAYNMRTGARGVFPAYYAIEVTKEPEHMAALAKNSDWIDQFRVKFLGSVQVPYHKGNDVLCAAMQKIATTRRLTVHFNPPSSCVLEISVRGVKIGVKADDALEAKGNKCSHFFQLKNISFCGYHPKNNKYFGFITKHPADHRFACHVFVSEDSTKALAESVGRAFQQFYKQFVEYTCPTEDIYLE
POSH/JIP-1 complex, sequence (Q8CE90 whole entry partner): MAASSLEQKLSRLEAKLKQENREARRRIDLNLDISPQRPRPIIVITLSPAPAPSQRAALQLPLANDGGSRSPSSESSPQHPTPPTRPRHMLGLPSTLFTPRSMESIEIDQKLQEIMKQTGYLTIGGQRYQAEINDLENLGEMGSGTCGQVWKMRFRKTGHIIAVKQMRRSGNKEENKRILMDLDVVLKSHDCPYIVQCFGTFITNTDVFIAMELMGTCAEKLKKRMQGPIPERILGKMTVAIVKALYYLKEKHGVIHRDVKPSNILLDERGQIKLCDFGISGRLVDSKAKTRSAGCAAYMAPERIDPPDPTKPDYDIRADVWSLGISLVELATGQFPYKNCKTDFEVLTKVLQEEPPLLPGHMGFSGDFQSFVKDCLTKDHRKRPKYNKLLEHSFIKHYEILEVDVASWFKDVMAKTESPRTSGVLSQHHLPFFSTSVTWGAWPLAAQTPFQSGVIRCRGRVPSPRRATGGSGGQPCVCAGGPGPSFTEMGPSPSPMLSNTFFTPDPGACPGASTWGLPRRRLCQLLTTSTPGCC
POSH/JIP-1 complex, sequence (Q91Y86 whole entry partner): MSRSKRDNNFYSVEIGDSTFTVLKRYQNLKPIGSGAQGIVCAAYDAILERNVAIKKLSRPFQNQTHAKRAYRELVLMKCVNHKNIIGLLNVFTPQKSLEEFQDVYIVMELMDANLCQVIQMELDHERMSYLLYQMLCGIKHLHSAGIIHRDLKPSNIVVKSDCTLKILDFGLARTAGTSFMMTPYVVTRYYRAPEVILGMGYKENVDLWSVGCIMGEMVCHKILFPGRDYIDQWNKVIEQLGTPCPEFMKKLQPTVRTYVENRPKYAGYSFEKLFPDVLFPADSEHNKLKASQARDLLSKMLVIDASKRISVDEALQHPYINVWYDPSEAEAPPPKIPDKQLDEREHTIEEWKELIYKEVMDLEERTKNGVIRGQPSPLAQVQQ
Procedure for POSH/JIP-1 complex: To identify a role for POSH in TCR-mediated JNK activation, we established its ability to bind components of the JNK signaling cascade in CD8+ T cells. For this, OT-1 TCR transgenic blasts (CTL) were re-stimulated with OVA-Tetramer (Tet)/α-CD28 and subjected to IP with antibodies against Rac1. Co-immunoprecipitation (Co-IP) of components of the JNK signaling pathway was assessed by immunoblot. […] To circumvent this problem we performed Co-IP analyses by flow cytometry (IP-FCM) using α-Rac1, α-POSH and α-JIP-1 antibodies covalently linked to latex beads. The beads were incubated with the lysates washed and probed with antibodies against the Co-IP target. The levels of associated molecules (secondary analyte/Co-IP target) were quantified relative to IP target (primary analyte/loading control). Specificity was determined by comparison to both isotype and negative control antibodies (FIG. 5 and FIG. 6). […] For IP-FCM quantification controls and Tat-POSH inhibitor specificity controls, OT-I T cells were stimulated with OVA-Tet for 24 hours. Cells were then lysed and subjected to IP-FCM using α-Rac-1, α-POSH or α-JIP-1 beads (FIG. 6A).
Cells were then lysed and subjected to IP-FCM using α-JIP-1 or α-Rac1 beads and the relative levels of POSH or JIP-1 were determined.

With “GRKKRRQRRRPPRKEDELELRKGEMFLVFER [Tat-POSH SH3.3]”, on POSH/JIP-1 complex, the POSH/JIP-1 complexes disrupted entry is on record as “approximately 30%”. Moreover, the “reduction in in vitro cytotoxicity” value in the data set with CD8+ T cells is listed as 10-15%. In addition, the “effect on normal cells” value in the data set on normal thymocytes is given as “not affected”. Besides, the “toxicity to T cells” value with T cells was “non-toxic”.
